Reference: US20220143016A1, “METHOD FOR TREATING A MULTIPLE MYELOMA” (PTC THERAPEUTICS, INC., priority 2019, published 2022)
Entries after “also recorded” stand apart in the source; their conditions may differ.

Assays:
[1] = test system: parental and PI-resistant HMCLs; assay: Cytotoxicity in human MM cell lines (HMCLs); format: cell-based; conditions: parental and PI-resistant HMCLs (n=16), read-out: median IC50
Protocol: (§1) The effect of Compound 1 was tested in human MM cell lines (HMCLs) using cytotoxicity, colony formation, co-culture, qPCR, Western Blot, flow cytometry, ELISA, and lentiviral transduction experiments. The effect of Compound 1 was assessed in vivo in the 5TGM1 murine model of MM.

[2] = test system: MM cells; assay: Drug combination studies in MM cell lines; format: cell-based, human
Protocol: as §1

[3] = test system: MYC, AKT, ERK, GSK3b, FOXM1; assay: Central MM signalling cascades and key MM gene protein expression; format: cell-based, human
Protocol: as §1

[4] = test system: microtubule polymerization; assay: Mechanistic studies of microtubule polymerization
[5] = test system: BMI-1; assay: BMI-1 protein expression in HMCLs; format: cell-based, human; conditions: within 24 hrs of treatment
Protocol: as §1

[6] = test system: MM cells; assay: Time course experiments: mitotic arrest and apoptosis in MM cells; format: cell-based, human
Protocol: as §1

[7] = test system: 5TGM1 murine model of MM; assay: 5TGM1 murine model of MM, bone marrow infiltration; format: in vivo; conditions: 5TGM1 model
Protocol: as §1

SMILES: Cc1nc2ccc(F)cc2n1-c1nc(N)c(F)c(Nc2ccc(C(F)(F)F)cc2)n1 [Compound 1, 5-fluoro-2-(6-fluoro-2-methyl-1H-benzo[d]imidazol-1-yl)-N^4-[4-(trifluoromethyl)phenyl]pyrimidine-4,6-diamine]
- IC50 [1]: 57.2 nM
- combination effect with established drugs and BH3 mimetics ([2]; IMiDs, Dex, PIs, MEL, BH3 mimetics targeting BCL2, BCLxL, MCL1, in individual cell lines): synergism
- combination effect with epigenetic modulators ([2]; targeting EZH2, CBP/EP300, BRD4, HDACs): Consistent synergism
- ERK and GSK3b activity [3]: unaffected
- MYC and AKT activity [3]: significant reduction
- MYC and FOXM1 protein expression [3]: Downregulation
- microtubule polymerization [4]: inhibits microtubule polymerization
- BMI-1 protein expression [5]: downregulated BMI-1 protein expression
- mitotic arrest ([6]; 6-24 h post treatment, elevated Cyclin B1, AURKA and BIRC5, downregulation of MCL1): potent mitotic arrest
- rescue of MM cells with BMI-1 overexpression ([6]; BMI-1 overexpression): did not rescue
- apoptosis ([6]; after prolonged mitosis, Annexin V positive cells, cleaved caspases 8 and 9, cleaved PARP, loss of MCL1, mitochondrial membrane depolarization): induction of apoptosis
- MM cells after treatment ([7]; 30 mg/kg/biweekly): complete eradication of MM cells
- BM infiltration ([7]; various doses versus vehicle (FIG. 1, *P<0.0001)): dose response reduction; also recorded: reproducible dose dependent reduction
